Source: patent US5332733A, “Heterocyclically substituted piperazinoakylbenzoxazine and piperazinoalkylbenzothiazine compounds, processes for preparing them, and medicaments containing them” (Kali-Chemie Pharma GmbH, priority 1990, dated 1994)

Target: T1, 5-lipoxygenase (Mus musculus, UniProt P48999)
T1 construct: A cell suspension containing peritoneal cells from male mice 8-10 weeks old was obtained in a known manner; endogenous in cells; host or cells: mouse peritoneal macrophages (primary, adherent)
T1 sequence (P48999 1-674): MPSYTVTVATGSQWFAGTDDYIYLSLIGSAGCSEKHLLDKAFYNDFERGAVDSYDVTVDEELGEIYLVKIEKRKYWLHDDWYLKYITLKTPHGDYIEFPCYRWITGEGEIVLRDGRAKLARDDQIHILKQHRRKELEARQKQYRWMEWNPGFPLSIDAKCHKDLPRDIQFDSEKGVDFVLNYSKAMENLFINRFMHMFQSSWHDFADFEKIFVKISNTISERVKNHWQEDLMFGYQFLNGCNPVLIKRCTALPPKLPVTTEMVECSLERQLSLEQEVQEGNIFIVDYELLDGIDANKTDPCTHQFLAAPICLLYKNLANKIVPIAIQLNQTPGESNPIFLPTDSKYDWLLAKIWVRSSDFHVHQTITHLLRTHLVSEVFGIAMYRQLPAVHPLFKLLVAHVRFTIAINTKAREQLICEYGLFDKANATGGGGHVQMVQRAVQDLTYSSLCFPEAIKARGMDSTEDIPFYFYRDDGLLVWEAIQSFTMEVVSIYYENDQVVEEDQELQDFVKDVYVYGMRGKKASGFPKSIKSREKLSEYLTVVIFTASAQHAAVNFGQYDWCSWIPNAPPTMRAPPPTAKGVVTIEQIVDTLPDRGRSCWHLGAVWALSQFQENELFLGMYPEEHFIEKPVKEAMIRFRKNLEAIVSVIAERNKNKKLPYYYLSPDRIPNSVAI
Assay: In vitro 5-lipoxygenase inhibition, release of LTC4 from zymosan-stimulated peritoneal macrophages
Format: cell-based
Settings: zymosan-stimulated mouse peritoneal macrophage cells, 10^-5 mole/l
Excerpt: 5. In Vitro Determination of Cyclooxygenase Inhibition And 5-lipoxygenase Inhibition.
After a cell is activated, arachidonic acid contained in cell membranes is metabolized in two ways. Leucotrienes, inter alia leucotriene C4, are formed due to the action of the enzyme 5-lipoxygenase (=5-LO), and prostanoids are formed due to the action of the enzyme cyclooxygenase (=CO). In in vitro systems these metabolites are secreted from the cell.
To evaluate the cyclooxygenase-inhibiting and 5-lipoxygenase-inhibiting properties of the test substances, their inhibitory activity on the biosynthesis of the arachidonic acid derivatives leucotriene C4 (=LTC4) and 6-keto-prostaglandin F1α (=6-keto-PGF1α) was determined in vitro on mouse peritoneal macrophage cells. For this purpose the LTC4 and 6-keto-PGF1α contents of a mouse peritoneal macrophage cell culture medium were determined by zymosan stimulation as described by Scott et al. (J. Exp. Med. 152 (1980), 324-335) and by Fradin et al., (Prostaglandins, 33 (1987), 579-589).
A cell suspension containing peritoneal cells from male mice 8-10 weeks old was obtained in a known manner. A solution marketed under the designation RPMI 1640 (Manufactured by Gibco) was used as the cell culture medium, to which heparin (10 international units/ml) and antibiotics were added according to the procedure of Bonney et al. (Biochem. J. 176 (1978) 422-433). The cell suspension was adjusted to a cell concentration of 10^6 cells per ml and distributed uniformly on titer dishes containing 24 1-ml titer cells (wells). These were kept for two hours in a humidified incubator filled with air enriched with 7% CO2. Cells not adhering to the titer well walls were then removed by washing. The remaining macrophage cells adhering to the walls were incubated for about 12 hours in a suspension medium to which 0.1% of bovine serum albumin (BSA=Bovine Serum Albumin) was added. The suspension medium was then replaced by a Hanks salt solution (=Hanks Balanced Salt Solution=HBSS) with 10 mmoles of HEPES (=hydroxyethylpiperazinoethanesulfonic acid) to which a 0.1% strength solution of the test substances in aqueous, 1% strength dimethylformamide or only the solvent had been added. After 15 minutes the arachidonic acid metabolism was stimulated by adding […] of zymosan (=glycoprotein mixture isolated from cell walls of beer yeast, Saccharomyces cerevisiae, Manufactured by Sigma Chemical Co., Munich) per titre cell. After 2 hours samples of the respective supernatant liquid in each cell were examined for their 6-keto-PGF1α and LTC4 contents by an enzyme immunoassay (=EIA). This EIA is carried out following the method of Pradelles et al. (Analytical Chem. 57 (1985), 1170-1173). The determination of LTC4 and the determination of 6-keto-PGF1α were each carried out on suitable dilutions of the samples (1:50 to 1:250 for the LTC4 determination and 1:250 to 1:1,250 for the 6-keto-PGF1α determination) in comparison with a comparative scale. To determine the inhibiting effect of a 10^-5 molar concentration of the compounds, the amounts of reference eicosanoid were determined, and the inhibiting effect was calculated therefrom in % inhibition compared to the measurements of the zymosan controls.

Cc1ccnc(N2CCN(CCCCC3Sc4ccccc4NC3=O)CC2)c1 (centres unmarked) [Example 1, 2-{4-[4-(4-methylpyridin-2-yl)-piperazin-1-yl]butyl}-2H-1,4-benzothiazine-3(4H)-one]
% inhibition upon release of LTC4: 48%

Cc1ccnc(N2CCN(CCCCC3Oc4ccccc4NC3=O)CC2)c1 (centres unmarked) [Example 7]
% inhibition upon release of LTC4: 46%

Cc1ccnc(N2CCN(CCCC3Oc4ccccc4NC3=O)CC2)c1 (centres unmarked) [Example 9]
% inhibition upon release of LTC4: 65%

Cc1ccnc(N2CCN(CCCC3Sc4ccccc4NC3=S)CC2)c1 (centres unmarked) [Example 11]
% inhibition upon release of LTC4: 42%

O=C1Nc2ccccc2SC1CCCN1CCN(c2ccc(Cl)cn2)CC1 (centres unmarked) [Example 15]
% inhibition upon release of LTC4: 9%
